The text below walks through data of patent US12435310B2, “Expansion culture method for human-derived natural killer cells by using HDAC inhibitor” (KOREA UNIVERSITY RESEARCH AND BUSINESS FOUNDATION, priority 2018, dated 2025).

Structures are written as SMILES. Where two headings read alike, the source gives them in different places.

Experiment [1] has as its system NK cells. The settings on record: cited from earlier work.
Experiment [2] concerns NK cells. The settings on record: Ogbomo et al., FEBS Letters 2007; cited from earlier work.
In experiment [3] the test system is natural killer cells. Put plainly: Cell proliferation by Ki67 staining, flow cytometry. It counts as cell-based, Human. The settings on record: NK cells expanded 10 days, treated, further cultured 8 days (FIG. 3). The protocol:
(§1) In the same manner as in Example 1, natural killer cells expanded ex vivo for 10 days were treated with an HDAC inhibitor and further cultured for 8 days. After harvesting the cells, 5×10^5 cells were obtained and apoptosis and proliferation thereof were measured using a flow cytometer.
(§2) To measure apoptosis, cells were harvested and stained with annexin V (2.5 μl) and 7AAD (2 μl) for 15 minutes, and then the proportion of the cells stained with annexin V/7AAD was analyzed using FACS Cantoll (BD). To measure cell proliferation, PerCP-labeled CD3 mAb (Biolgend Cat No. 344814 clone SK7) and APC-labeled CD56 mAb (Biolegend Cat No. 362504 clone 5.1H11) were added to the cells and allowed to react at 4° C. for 20 minutes. For intracellular FACS, the cells were washed with FACS buffer, and analyzed by staining Ki67 in the cell nucleus with the eBioscience Foxp3/transcription factor staining buffer set (eBioscience Cat No. 00-5523-00).
Background: Flow cytometry measures light scatter and fluorescence of single cells or particles in a stream.

Experiment [4] has as its system natural killer cells. As to the kind of experiment: Apoptosis by annexin V/7AAD staining, flow cytometry. It counts as cell-based, Human. To be noted: NK cells expanded 10 days, treated, further cultured 8 days (FIG. 3). Here is the method:
as §1, §2

Experiment [5] relates to natural killer cells. As to the kind of experiment: CD107a expression and IFN-g secretion of natural killer cells, flow cytometry. It counts as cell-based, Human. The protocol: 2.5 μl of FITC-labeled anti-CD107a mAb was added to the cells, and Golgi stop (BD Pharmingen) was added, followed by culture at 37° C. for 5 hours. After completion of culture, PerCPp-labeled CD3 mAb (Biolgend Cat No. 344814 clone SK7) and APC-labeled CD56mAb (Biolegend Cat No. 362504 clone 5.1H11) were added to the cells and allowed to react at 4° C. for 20 minutes. For intracellular FACS, the cells were washed with FACS buffer, fixed, permeabilized using a BD Cytoperm/Cytofix kit (BD Pharmingen, San Diego, CA), stained with PE-labeled IFN-g mAb, and then analyzed by flow cytometry. As a positive control, natural killer cells treated with PMA/ionomycin were used.

Experiment [6] deals with natural killer cells. Put plainly: Cell counting during ex vivo expansion culture of natural killer cells (hematocytometer). It counts as cell-based, Human. The protocol: Human blood was collected, and then centrifuged using Ficoll (Ficoll-Paque™ PLUS, GE Healthcare) at 2500 rpm for 30 minutes, and peripheral blood mononuclear cells were isolated from the buffy coat. Thereafter, the isolated cells were co-cultured with the Jurkat cell line (Korea Cell Line Bank) and EBV-LCL cell line (Korea Cell Line Bank) (each cell line was irradiated with 100 Gy) at a peripheral blood mononuclear cell:Jurkat cell:EBV-LCL cell ratio of 1:0.5:0.5 in hRPMI medium (RPMI1640 medium (Corning) containing 10% FBS and 1% penicillin/streptomycin) in the presence of 500 U/ml of IL-2. During culture, the medium was replaced with hRPMI medium containing 500 U/ml of IL-2 once every 3 to 4 days.
In order to confirm the effect of an HDAC inhibitor on natural killer cells, the natural killer cells cultured for […] under the above-described conditions were treated with 125 nM of an HDAC inhibitor (SAHA, Sigma Aldrich, USA) once every 4 days, and the number of the cells was counted (FIG. 1A). At this time, the number of the cells was counted using a hematocytometer once every 4 days while the cells were further cultured for about 12 days, and during culture, the medium was replaced with hRPMI medium containing 500 U/ml of IL-2.

Experiment [7] relates to K562 and A375 target cancer cells. As to the kind of experiment: Cancer cell killing ability of natural killer cells, chromium release. It counts as cell-based, Human. To be noted: K562 and A375 targets, ratio 1:1, 4 hours, versus untreated control (FIG. 4A). The protocol:
In order to examine whether the cancer cell killing ability of the natural killer cells expanded ex vivo by the method of Example 1 changes, K562 (Korea Cell Line Bank) and A375 (Korea Cell Line Bank) cells were prepared as target cancer cells, labeled with chromium for 1 hour, mixed with natural killer cells at a ratio of 1:1, and then co-cultured 37° C. After 4 hours, the supernatant was taken and the isotope value thereof was analyzed using a gamma counter.

Regarding `O=C(CCCCCCC(=O)Nc1ccccc1)NO` [vorinostat], the “cancer cell killing ability of the NK cells” value in the experiment on NK cells [1] (activated NK cells, Wang et al., Biol Blood Marrow Transplant 2012) is “no change”.

Take `CCCC(CCC)C(=O)O` [valproic acid]: the “cancer cell killing ability of the NK cells” value with NK cells [1] (Ogbomo et al., FEBS Letters 2007) is on record as “decreases”. For the same compound, in the experiment on NK cells [2], the “proliferation of the NK cells” value is “decreases”.

Consider `O=C(CCCCCCC(=O)Nc1ccccc1)NO` [SAHA], for which the “proliferation of the natural killer cells (Ki67)” value with natural killer cells [3] is recorded as “did not change”; in the experiment with natural killer cells [3] (listed as HDAC inhibitor), “no significant change”. Moreover, the “apoptosis of the natural killer cells (annexin V/7AAD)” value with natural killer cells [4] is recorded as “inhibited”. Also, the “interferon-gamma secretion of the cells” value with natural killer cells [5] (co-cultured 10 days, then treated) is listed as “did not change”. In addition, in the experiment with natural killer cells [5] (treated or not treated with the HDAC inhibitor (FIG. 4B)), the “function of the natural killer cells: expression of CD107a and secretion of IFN-g” value was “no change”. Further, in the experiment with natural killer cells [6] (NK cells cultured 6 days, then 125 nM once every 4 days, further culture about 12 days (FIG. 1B)), the “number of cells compared with control group not treated with the HDAC inhibitor” value is given as “more than double”. For the same compound, in the experiment on natural killer cells [6] (PBMC co-cultured with Jurkat and EBV-LCL cells for 10 days, then treated), the “number of the natural killer cells compared to conventional culture method” value is “increased”. The “proliferation of the NK cells by concentration” value with natural killer cells [6] (concentration of 62.5 nM (FIG. 2B)) is recorded as “the highest”. Besides, the number of cells entry with natural killer cells [6] (treated at an initial stage without being cultured) is listed as “no increase”. Also, the “number of cells by timing of treatment” value with natural killer cells [6] (treated from co-culture day 6 (FIG. 2A)) is on record as “the highest”. In the experiment on natural killer cells [6] (treated on day 0 of culture compared to treated on day 10 of culture (FIG. 1C)), the “proliferation of the NK cells (growth curve)” value is on record as “decreased”. The “cancer cell killing ability of the natural killer cells” value in experiment [7] is on record as “did not change”.
